Test results taken from paper PMC7449161, “Nonstationary Pharmacokinetics of Caspofungin in ICU Patients” (Antimicrobial Agents and Chemotherapy, 2020).
Where two headings read alike, the source gives them in different places.

What was measured:
C. glabrata = conditions: preclinical pharmacodynamic target; cited from earlier work
C. albicans = conditions: preclinical pharmacodynamic target; cited from earlier work
Protocol: The simulations of PTA were based on model parameters from bootstrap samples (n = 1,000) in order to include the parameter uncertainty. Predictions of AUC at steady state were performed for the standard 50-mg maintenance dose.

[1] = cited from earlier work; for CL: healthy subjects
[2] = Population pharmacokinetics of caspofungin in ICU patients (two-compartment nonlinear mixed-effects model); type: in vivo, human; conditions: for clearance: human, serum, iv; for typical AUC0–24: maintenance dose of 50 mg
Text: This study was registered at ClinicalTrials.gov under ID NCT03399032. It was a prospective observational study conducted in adult critically ill patients admitted to ICU due to severe sepsis requiring broad-spectrum antibiotics with a high risk of fungal infection. Both medical and surgical patients with any type of infection (pulmonary, abdominal, urinary tract, etc.) were included. Eligible consent was obtained from each patient or his or her attendant. Allergy to caspofungin, lack of consent to participate in the study, and age below 18 or above 80 years were the exclusion criteria. Thirty-three patients were enrolled in the study. Data from three patients were excluded from analysis due to technical issue with handling the samples, which made them unsuitable for analysis and the concentrations could not be determined.
The antibiotic regimen included broad-spectrum antibacterial antibiotics plus caspofungin as empirical antifungal therapy (70 mg i.v. on the first day, and 50 mg i.v. on the consecutive days) once daily. In three patients with liver failure caspofungin doses were reduced (50 mg i.v. initial and 35 mg i.v. maintenance dose). Any site of infection was treated in the manner.
Blood samples (3 ml) were collected 0.5, 2, 4, 8, 12, and 24 h after each dose of caspofungin for three consecutive days from the standard arterial cannula. Thirty minutes after each sample collection, blood was centrifuged for 10 min at 3,000 rpm. Subsequently, the supernatant was collected and frozen. Serum caspofungin concentrations were measured with high-performance liquid chromatography (HPLC).
Plasma samples were prepared for analysis according to a previously described procedure ([3]). A Dionex chromatographic system (Dionex, Sunnyvale, CA), equipped with a P580 LPG LC-6A gradient pump, UVD340S UV-visible detector, and a Rheodyne 7725 loop injector with a sufficient volume of 20 μl was employed in this study. Chromatographic separation was achieved on a Zorbax SB C18 column (150 × 4.6 mm × 5 μm) in isocratic mode. The mobile phase consisted of 20 mM triethylammonium phosphate buffer (pH 3.0): acetonitrile-methanol (50:40:10 [vol/vol/vol]; Fluka, HPLC grade). The mobile phase flow rate was 1.0 ml/min, and caspofungin absorbance was measured at 210 nm. The analytical method was validated in terms of linearity, the limits of detection (LOD) and quantification (LOQ), precision, and accuracy. The standard curves were linear over a concentration range from 0.25 to 10.0 μg/ml with an R^2 of 0.987. The LOD and LOQ values for caspofungin were 0.08 and 0.18 μg/ml, respectively. The intra- and interday accuracies ranged from 98.1 to 102.8%, and the coefficients of variation (CVs) were between 0.8 and 3.4%.
Population nonlinear mixed-effects modeling was conducted using NONMEM software (v7.3; Icon Development Solutions, Ellicott City, MD), GNU Fortran 95 compiler (GCC 4.6.0), and Wings for NONMEM (WFN741, http://wfn.sourceforge.net). The first-order conditional estimation method with η-ε interaction was employed throughout the model-building procedure. R computing environment (R Core Team 2019) was used for data processing and visualization.
The minimum value of the NONMEM objective function (OFV), typical goodness-of-fit diagnostic plots, and the evaluation of the precision of pharmacokinetic parameters and variability estimates were used to discriminate between various models during the model-building process. For hierarchical models, the decrease in OFV of 6.62 units defining an improved fit at a P of <0.01 for one additional parameter was considered to be statistically significant. The uncertainty of final model parameters was determined by nonparametric bootstrap with 1,000 replicates. The 90% confidence intervals (90% CI) for model parameters were constructed based on bootstrap results.
During the structural model-building step, candidate one-, two-, and three-compartment models were tested to describe the pharmacokinetics of caspofungin. […]

[3] = cited from earlier work; for clearance: ICU patients
Text: Although the CL after the first dose (0.563 liters/h, 6.7%RSE) is well within the values reported in literature, the CL after the second dose (0.737 liters/h, 6.1%RSE) is within the highest previously reported values, and the CL after the third dose (1.01 liters/h, 9.1%RSE) almost doubles compared to CL after the first dose and literature CL values.

[4] = cited from earlier work
Text: There are little data concerning the influence of extracorporeal membrane oxygenation (ECMO) on caspofungin pharmacokinetics ([9], [10]). ECMO is known to alter drug pharmacokinetics due to drug extraction during the procedure and a large volume of exogenous blood needed for ECMO circuit. The changes include increased volume of distribution and decreased clearance ([11]). The interactions between the ECMO circuit and the drug are not always easily predictable, but one of the vital drug characteristics determining circuit drug loss is the lipophilicity and protein binding ([12], [13]). Since ca ... || The changes in parameters with time require further investigation as they might be caused by a process that our study was not able to capture and describe. It could be the result of temporal changes in protein binding as caspofungin is highly protein-bound (97%) ([6]). Another possibility is nonlinearity in metabolic or distribution processes.

C. parapsilosis = conditions: preclinical pharmacodynamic target; cited from earlier work
[5] = patients with liver failure, maintenance dose of 35 mg, from individual parameters

CC[C@H](C)C[C@H](C)CCCCCCCCC(=O)N[C@H]1C[C@@H](O)[C@@H](NCCN)NC(=O)[C@@H]2[C@@H](O)CCN2C(=O)[C@H]([C@H](O)CCN)NC(=O)[C@H]([C@H](O)[C@@H](O)c2ccc(O)cc2)NC(=O)[C@@H]2C[C@@H](O)CN2C(=O)[C@H]([C@@H](C)O)NC1=O [caspofungin]
target AUC/MIC (C. glabrata): 450 | target AUC/MIC (C. albicans): 865 | CL ([1]; sampling for 26 weeks): 0.579 L/h | CL ([1]; sampling for 28 days): 0.631 L/h | quantifiable concentrations as long as, after administration ([1]; radioactive labeled caspofungin): 22.3 weeks | decrease in exposure between doses ([2]; CL2 versus CL1): 24% | decrease in exposure between doses ([2]; CL3 versus CL1): 44% | decrease in caspofungin exposure ([2]; associated with increasing clearance with subsequent doses, ICU patients): > 20% | clearance ([2]; estimated during model building process, ICU patients, read-out: mean CL for all three occasions (converted)): 11.8 mL/min | clearance ([2]; typical clearance after first dose, 30 ICU patients, 70 mg i.v. day 1, 50 mg i.v. once daily after, HPLC-UV, final model, read-out: θCL day 1, Estimate (%RSE) (converted)): 9.38 mL/min | clearance ([2]; typical clearance after second dose, 30 ICU patients, i.v., final model, read-out: θCL day 2, Estimate (%RSE) (converted)): 12.3 mL/min | clearance ([2]; typical clearance after third dose, 30 ICU patients, i.v., final model, read-out: θCL day 3, Estimate (%RSE) (converted)): 16.8 mL/min | θQ, Estimate (%RSE) ([2]; intercompartmental clearance, 30 ICU patients, final model): 1.31 (15.7) liter/h | typical AUC0–24 ([2]; typical clearance after first dose (CL1)): 89 mg ⋅ h/liter | typical AUC0–24 ([2]; typical clearance after second dose (CL2)): 68 mg ⋅ h/liter | typical AUC0–24 ([2]; typical clearance after third dose (CL3)): 50 mg ⋅ h/liter | minimal AUC0–24 as % of the 98 mg ⋅ h/liter target ([2]; patients with liver failure, 35 mg maintenance): 23% | maximum AUC0–24 as % of the value required for efficacy ([2]; patients with liver failure, 35 mg maintenance, 98 mg ⋅ h/liter target): 62% | AUC0–24, maximum value [2, 5]: 61 mg ⋅ h/liter | AUC0–24, minimal value [2, 5]: 23 mg ⋅ h/liter | θV1 day 1, Estimate (%RSE) ([2]; volume of distribution of central compartment after first dose, 30 ICU patients, final model): 6.04 (7.0) liter | θV1 day 2, Estimate (%RSE) ([2]; volume of distribution of central compartment after second dose, 30 ICU patients, final model): 7.32 (5.3) liter | θV1 day 3, Estimate (%RSE) ([2]; volume of distribution of central compartment after third dose, 30 ICU patients, final model): 7.70 (5.3) liter | θV2, Estimate (%RSE) ([2]; volume of distribution of peripheral compartment, 30 ICU patients, final model): 5.13 (13.7) liter | mean clearance ([3]; ICU patients (Child-Pugh B score)): 0.55 L/h | clearance ([3]; day 3 of the study): 0.57 L/h | clearance ([3]; day 7 of the study): 0.54 L/h | clearance [3]: 0.66 L/h | CL, value provided in the drug label [3]: 0.72 L/h | mean clearance ([3]; patients undergoing CRRT): 0.62 L/h | mean clearance ([3]; patients with invasive aspergillosis, value for a 76-kg patient): 0.403 L/h | protein bound [4]: 97% | target AUC/MIC (C. parapsilosis): 1,185
